From US12643899B2, “Antiviral agents, uses thereof and methods for their preparation” (The University of British Columbia, priority 2020, dated 2026)

Legend:
Test in all cases: microbe, parasite or virus in culture
Format in all cases: cell-based
[1] = test system: SARS-CoV-2 South Africa (501Y.V2); conditions: Severe acute respiratory syndrome coronavirus 2, Calu-3
[2] = test system: SARS-CoV-2 Wuhan strain from VIDO (SB); conditions: Severe acute respiratory syndrome coronavirus 2, Calu-3
SARS-CoV-2 Nigeria (484) = conditions: Severe acute respiratory syndrome coronavirus 2, Calu-3
[3] = test system: SARS-CoV-2 England (VOC 202012/01)

COc1c2n(c3ccccc13)[C@]1(O)C(=O)N(C)C(=O)[C@]1(O)c1c-2[nH]c2ccc(Cl)cc12 [CA, (11S,15R)-7-chloro-11,15-dihydroxy-23-methoxy-13-methyl-3,13,16-triazahexacyclo[14.7.0.0^2,10.0^4,9.0^11,15.0^17,22]tricosa-1(23),2(10),4(9),5,7,17,19,21-octaene-12,14-dione]
IC50 [1]: 12.2 nM | IC50 [2]: 57.7 nM | IC50 (SARS-CoV-2 Nigeria (484)): 12.2 nM | IC50 ([3]; Severe acute respiratory syndrome coronavirus 2, Calu-3): 0.801 nM | EC50 ([3]; Severe acute respiratory syndrome coronavirus 2, Calu-3, read-out: ED50): ~0.8 nM
